pIC50: −log10 of the molar value.
These molecules were tested against PI3Kδ kinase (Homo sapiens, UniProt O00329) (assay: In vitro pharmacodynamics evaluation to PI3K kinases).
PI3Kδ kinase, sequence (O00329 whole entry): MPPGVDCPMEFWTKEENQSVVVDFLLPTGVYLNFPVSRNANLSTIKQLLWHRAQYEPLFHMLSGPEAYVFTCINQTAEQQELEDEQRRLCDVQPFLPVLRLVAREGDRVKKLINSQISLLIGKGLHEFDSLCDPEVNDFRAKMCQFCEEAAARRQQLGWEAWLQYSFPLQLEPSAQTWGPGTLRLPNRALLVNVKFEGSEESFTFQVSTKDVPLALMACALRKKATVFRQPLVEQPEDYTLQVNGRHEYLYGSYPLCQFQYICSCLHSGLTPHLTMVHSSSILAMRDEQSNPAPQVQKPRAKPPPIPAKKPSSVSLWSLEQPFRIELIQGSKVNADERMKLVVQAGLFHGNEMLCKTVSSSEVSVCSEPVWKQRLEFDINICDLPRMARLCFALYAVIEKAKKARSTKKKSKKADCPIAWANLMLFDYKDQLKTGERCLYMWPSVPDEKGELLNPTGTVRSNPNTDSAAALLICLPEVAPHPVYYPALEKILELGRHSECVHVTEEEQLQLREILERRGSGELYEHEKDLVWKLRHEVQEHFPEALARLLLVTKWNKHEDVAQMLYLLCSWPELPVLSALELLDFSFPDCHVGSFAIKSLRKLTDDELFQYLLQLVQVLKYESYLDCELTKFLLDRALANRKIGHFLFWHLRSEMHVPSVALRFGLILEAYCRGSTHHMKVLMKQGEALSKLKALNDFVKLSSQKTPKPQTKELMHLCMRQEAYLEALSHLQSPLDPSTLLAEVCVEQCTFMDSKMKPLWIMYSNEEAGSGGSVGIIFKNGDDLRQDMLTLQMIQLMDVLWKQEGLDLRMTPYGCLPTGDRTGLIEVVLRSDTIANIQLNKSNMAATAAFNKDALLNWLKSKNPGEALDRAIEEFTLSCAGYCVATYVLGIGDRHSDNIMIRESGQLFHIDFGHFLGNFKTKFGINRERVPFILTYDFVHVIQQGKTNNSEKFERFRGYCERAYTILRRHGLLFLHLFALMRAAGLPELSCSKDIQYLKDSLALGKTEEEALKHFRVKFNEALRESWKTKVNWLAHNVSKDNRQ
PI3Kδ kinase, sequence (P27986 whole entry partner): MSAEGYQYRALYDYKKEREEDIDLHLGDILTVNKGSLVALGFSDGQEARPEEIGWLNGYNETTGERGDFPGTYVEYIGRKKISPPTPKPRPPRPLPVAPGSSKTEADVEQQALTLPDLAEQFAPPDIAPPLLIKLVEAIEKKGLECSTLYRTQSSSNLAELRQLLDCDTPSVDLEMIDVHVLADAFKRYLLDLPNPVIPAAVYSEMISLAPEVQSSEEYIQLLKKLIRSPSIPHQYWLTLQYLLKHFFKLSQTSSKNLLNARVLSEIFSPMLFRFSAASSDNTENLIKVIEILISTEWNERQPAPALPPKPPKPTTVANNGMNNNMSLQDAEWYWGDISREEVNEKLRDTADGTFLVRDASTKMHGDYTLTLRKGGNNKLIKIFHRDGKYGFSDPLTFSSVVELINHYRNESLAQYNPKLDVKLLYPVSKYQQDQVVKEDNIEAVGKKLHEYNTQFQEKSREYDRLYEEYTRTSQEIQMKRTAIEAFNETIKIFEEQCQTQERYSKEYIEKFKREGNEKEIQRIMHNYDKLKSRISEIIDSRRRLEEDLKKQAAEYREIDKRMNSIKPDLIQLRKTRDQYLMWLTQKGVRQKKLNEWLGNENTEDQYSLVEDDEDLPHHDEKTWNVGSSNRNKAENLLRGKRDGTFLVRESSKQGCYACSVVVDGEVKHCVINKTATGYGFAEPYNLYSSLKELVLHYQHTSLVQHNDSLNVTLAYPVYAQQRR

pIC50 | SMILES
> 7.70 | [2H]C([2H])([2H])[C@H](Nc1ncnc2[nH]cnc12)c1nc2ccc(F)cc2c(=O)n1-c1ccccc1 [Example 10, (S)-2-(1-(9H-purin-6-yl-amino)-2,2,2-d3-ethyl)-6-fluoro-3-phenyl quinazoline-4(3H)-ketone]
> 7.70 | [2H][C@@](C)(Nc1ncnc2[nH]cnc12)c1nc2ccc(F)cc2c(=O)n1-c1ccccc1 [Example 8, (S)-2-(1-(9H-purin-6-yl-amino)-1-d-ethyl)-6-fluoro-3-phenyl quinazoline-4(3H)-ketone]
> 7.70 | [2H]C([2H])([2H])[C@]([2H])(Nc1ncnc2[nH]cnc12)c1nc2ccc(F)cc2c(=O)n1-c1ccccc1 [Example 9, (S)-2-(1-(9H-purin-6-yl-amino)-1,2,2,2-d4-ethyl)-6-fluoro-3-phenyl quinazoline-4(3H)-ketone]

Reference: patent US10414767B2, “Deuterated quinazolinone compound and pharmaceutical composition comprising same” (Suzhou Zelgen Biopharmaceuticals Co., Ltd., priority 2014, dated 2019)
